From patent US20250230193A1, “CYCLIC COMPOUND HAVING SELECTIVE KRAS INHIBITORY EFFECT ON HRAS AND NRAS” (CHUGAI SEIYAKU KABUSHIKI KAISHA, priority 2022, published 2025)

How the values were obtained:
[1] = biological target: GDP-bound NRAS wild-type protein (Homo sapiens, UniProt P01111); assay: Binding to NRAS by surface plasmon resonance (SPR), Single Cycle Kinetics; settings: KD ratio, GDP-bound NRAS wild-type vs GDP-bound KRAS wild-type, SPR
[2] = biological target: GDP-bound HRAS wild-type protein (Homo sapiens, UniProt P01112); assay: Binding to HRAS by surface plasmon resonance (SPR), Single Cycle Kinetics; settings: KD ratio, GDP-bound HRAS wild-type vs GDP-bound KRAS wild-type, SPR
Sequence of GDP-bound HRAS wild-type protein (P01112 whole entry): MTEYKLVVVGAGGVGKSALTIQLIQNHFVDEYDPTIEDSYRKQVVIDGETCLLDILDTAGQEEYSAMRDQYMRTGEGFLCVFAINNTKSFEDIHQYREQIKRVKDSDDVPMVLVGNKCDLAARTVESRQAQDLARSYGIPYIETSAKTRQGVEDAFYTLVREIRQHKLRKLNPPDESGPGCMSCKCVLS

Sequence of GDP-bound NRAS wild-type protein (P01111 whole entry): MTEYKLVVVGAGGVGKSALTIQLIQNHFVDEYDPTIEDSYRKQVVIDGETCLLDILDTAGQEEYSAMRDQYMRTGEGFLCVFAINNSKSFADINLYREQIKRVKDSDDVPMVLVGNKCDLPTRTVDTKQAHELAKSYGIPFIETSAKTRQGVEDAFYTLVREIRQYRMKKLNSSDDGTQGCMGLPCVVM

| Compound | NRAS/KRAS (ratio of KD value for NRAS to KD value for KRAS) [1] | HRAS/KRAS (ratio of KD value for HRAS to KD value for KRAS) [2] |
| --- | --- | --- |
| CCC[C@H]1C(=O)N[C@@H]([C@@H](C)CC)C(=O)N(C)CC(=O)N(C)[C@H]2C/C=C\CCN(C2=O)[C@@H](Cc2ccc(C)cc2)C(=O)N(C)CC(=O)N[C@@H](CCc2cc(F)c(C(F)(F)F)c(F)c2)C(=O)N2C[C@@H](C)C[C@H]2C(=O)NC2(CCC2)C(=O)N(C)[C@@H](C2CCCC2)C(=O)N(C)[C@H](C(=O)N(C)CC)CC(=O)N1C [PP1860] | A (a compound having 10 or more and less than 20 is denoted as A) | A (a compound having 10 or more and less than 20 is denoted as A) |
| CC[C@H](C)[C@@H]1NC(=O)[C@H](CC2CC2)N(C)C(=O)C[C@@H](C(=O)N(C)C)N(C)C(=O)[C@H](C2CCCC2)N(C)C(=O)C2(CCC2)NC(=O)[C@@H]2C[C@H](C)CN2C(=O)[C@H](CCc2ccc(C(F)(F)F)c(OC)c2)NC(=O)CN(C)C(=O)[C@H](Cc2ccc(C)cc2)N2CC/C=C\C[C@@H](C2=O)N(C)C(=O)CN(C)C1=O [PP1861] | A (a compound having 10 or more and less than 20 is denoted as A) | B (a compound having 3 or more and less than 10 is denoted as B) |
| CCC[C@H]1C(=O)N[C@@H]([C@@H](C)CC)C(=O)N(C)CC(=O)N(C)[C@H]2C/C=C\CCN(C2=O)[C@@H](Cc2ccc(C)cc2)C(=O)N(C)CC(=O)N[C@@H](CCc2cc(F)c(C(F)(F)F)c(F)c2)C(=O)N2C[C@H](C)C[C@H]2C(=O)NC2(CCC2)C(=O)N(C)[C@@H](C2CCCC2)C(=O)N(C)[C@H](C(=O)N(C)CC)CC(=O)N1C [PP1862] | A (a compound having 10 or more and less than 20 is denoted as A) | A (a compound having 10 or more and less than 20 is denoted as A) |
| CC[C@H](C)[C@@H]1NC(=O)[C@H](CC2CC2)N(C)C(=O)C[C@@H](C(=O)N(C)C)N(C)C(=O)[C@H](C2CCCC2)N(C)C(=O)C2(CCC2)NC(=O)[C@@H]2C[C@@H](C)CN2C(=O)[C@H](CCc2ccc(C(F)(F)F)c(OC)c2)NC(=O)CN(C)C(=O)[C@H](Cc2ccc(C)cc2)N2CC/C=C\C[C@@H](C2=O)N(C)C(=O)CN(C)C1=O [PP1863] | A (a compound having 10 or more and less than 20 is denoted as A) | A (a compound having 10 or more and less than 20 is denoted as A) |
| CC[C@H](C)[C@@H]1NC(=O)[C@H](CC(C)C)N(C)C(=O)C[C@@H](C(=O)N(C)C)N(C)C(=O)[C@H](C2CCCC2)N(C)C(=O)C2(CCC2)NC(=O)[C@@H]2C[C@H](C)CN2C(=O)[C@H](CCc2cc(F)c(C(F)(F)F)c(F)c2)NC(=O)CN(C)C(=O)[C@H](Cc2ccc(C)cc2)N2CC/C=C\C[C@@H](C2=O)N(C)C(=O)CN(C)C1=O [PP1864] | A (a compound having 10 or more and less than 20 is denoted as A) | B (a compound having 3 or more and less than 10 is denoted as B) |
| CC[C@H](C)[C@@H]1NC(=O)[C@H](CC(C)C)N(C)C(=O)C[C@@H](C(=O)N(C)C)N(C)C(=O)[C@H](C2CCCC2)N(C)C(=O)C2(CCC2)NC(=O)[C@@H]2C[C@H](C)CN2C(=O)[C@H](CCc2ccc(C(F)(F)F)c(OC)c2)NC(=O)CN(C)C(=O)[C@H](Cc2ccc(C)cc2)N2CC/C=C\C[C@@H](C2=O)N(C)C(=O)CN(C)C1=O [PP1865] | A (a compound having 10 or more and less than 20 is denoted as A) | B (a compound having 3 or more and less than 10 is denoted as B) |
| CC[C@H](C)[C@@H]1NC(=O)[C@H](CC(C)C)N(C)C(=O)C[C@@H](C(=O)N(C)C)N(C)C(=O)[C@H](C2CCCC2)N(C)C(=O)C2(CCC2)NC(=O)[C@@H]2C[C@@H](C)CN2C(=O)[C@H](CCc2cc(F)c(C(F)(F)F)c(F)c2)NC(=O)CN(C)C(=O)[C@H](Cc2ccc(C)cc2)N2CC/C=C\C[C@@H](C2=O)N(C)C(=O)CN(C)C1=O [PP1866] | A (a compound having 10 or more and less than 20 is denoted as A) | B (a compound having 3 or more and less than 10 is denoted as B) |
| CC[C@H](C)[C@@H]1NC(=O)[C@H](CC(C)C)N(C)C(=O)C[C@@H](C(=O)N(C)C)N(C)C(=O)[C@H](C2CCCC2)N(C)C(=O)C2(CCC2)NC(=O)[C@@H]2C[C@@H](C)CN2C(=O)[C@H](CCc2ccc(C(F)(F)F)c(OC)c2)NC(=O)CN(C)C(=O)[C@H](Cc2ccc(C)cc2)N2CC/C=C\C[C@@H](C2=O)N(C)C(=O)CN(C)C1=O [PP1867] | A (a compound having 10 or more and less than 20 is denoted as A) | B (a compound having 3 or more and less than 10 is denoted as B) |
| CCO[C@@H]1C[C@H]2C(=O)NC3(CCC3)C(=O)N(C)[C@@H](C3CCCC3)C(=O)N(C)[C@H](C(=O)N(C)CC)CC(=O)N(C)[C@@H](CC)C(=O)N[C@@H]([C@@H](C)CC)C(=O)N(C)CC(=O)N(C)[C@H]3C/C=C\CCN(C3=O)[C@@H](Cc3ccc(C)cc3)C(=O)N(C)CC(=O)N[C@@H](CCc3ccc(C(F)(F)F)c(OC)c3)C(=O)N2C1 [PP1869] | A (a compound having 10 or more and less than 20 is denoted as A) | A (a compound having 10 or more and less than 20 is denoted as A) |
| CC[C@H](C)[C@@H]1NC(=O)[C@H](CC)N(C)C(=O)C[C@@H](C(=O)N(C)CC)N(C)C(=O)[C@H](C2CCCC2)N(C)C(=O)C2(CC(C)(C)C2)NC(=O)[C@@H]2C[C@@H](C)CN2C(=O)[C@H](CCc2ccc(C(F)(F)F)c(OC)c2)NC(=O)CN(C)C(=O)[C@H](Cc2ccc(C)cc2)N2CC/C=C\C[C@@H](C2=O)N(C)C(=O)CN(C)C1=O [PP1870] | A (a compound having 10 or more and less than 20 is denoted as A) | A (a compound having 10 or more and less than 20 is denoted as A) |
| CCC[C@H]1C(=O)N[C@@H]([C@@H](C)CC)C(=O)N(C)CC(=O)N(C)[C@H]2C/C=C\CCN(C2=O)[C@@H](Cc2ccc(C)cc2)C(=O)N(C)CC(=O)N[C@@H](CCc2ccc(C(F)(F)F)c(OC)c2)C(=O)N2C[C@H](OCC)C[C@H]2C(=O)NC2(CCC2)C(=O)N(C)[C@@H](C2CCCC2)C(=O)N(C)[C@H](C(=O)N(C)C)CC(=O)N1C [PP1871] | A (a compound having 10 or more and less than 20 is denoted as A) | A (a compound having 10 or more and less than 20 is denoted as A) |
| CCO[C@@H]1C[C@H]2C(=O)NC3(CC(C)(C)C3)C(=O)N(C)[C@@H](C3CCCC3)C(=O)N(C)[C@H](C(=O)N(C)CC)CC(=O)N(C)[C@@H](CC)C(=O)N[C@@H]([C@@H](C)CC)C(=O)N(C)CC(=O)N(C)[C@H]3C/C=C\CCN(C3=O)[C@@H](Cc3ccc(C)cc3)C(=O)N(C)CC(=O)N[C@@H](CCc3ccc(C(F)(F)F)c(OC)c3)C(=O)N2C1 [PP1872] | A (a compound having 10 or more and less than 20 is denoted as A) | A (a compound having 10 or more and less than 20 is denoted as A) |
